Results as given in EP0603240B1, “SAFENING HERBICIDAL PYRAZOLYLSULFONYLUREAS” (priority 1991, dated 1993).

Assays:
Format in all cases: in vivo
[1] = tested on: Giant foxtail (Setaria fabergi); assay: Example 24, Procedure II: Herbicide No. 1 + co-herbicides Nos. 4, 6, 7, 12 with Antidote Nos. 15 and 17-21
Summary of the method: (§1)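 Greenhouse pots, herbicide No. 1 plus co-herbicides and antidote in acetone incorporated into silt loam soil covering the corn seed bed, with giant foxtail and velvetleaf; initial overhead irrigation equal to 0.6 cm rainfall, then sub-irrigation. Antidote at 2.24 kg/ha; percent injury read 13 days after application, duplicate average.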

[2] = tested on: velvetleaf (Abutilon theophrasti); assay: as above
Summary of the method: as §1

corn = assay: Example 19, Procedure II: Herbicide No. 1 + ERADICANE EXTRA with added antidotes
Summary of the method: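 Corn seeded in silt loam, covered with soil incorporating herbicide plus antidote (from acetone); EPTC given as ERADICANE EXTRA (with R-29148 and dietholate). Initial overhead irrigation equal to 0.6 cm rain, then greenhouse sub-irrigation. Percent injury scored; efficacy is injury without antidote minus injury with it.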

[3] = tested on: barnyardgrass (Echinochloa crusgalli); assay: Example 22: retest of Example 21 at reduced greenhouse temperatures; settings: Table 22
Experimental: (§2) Containers were filled and compacted with a fumigated silt loam top soil to a depth of about 1.3 cm from the top of the container. A first container was designated as an untreated control, a second container was designated as a herbicide control, and a third container was designated as a herbicide + antidote test container. Each of the containers was seeded with a crop species. A measured amount of herbicide dispersed or dissolved in acetone was applied to a measured quantity of soil. To this same quantity of soil treated with herbicide, there was added a measured amount of antidote dispersed or dissolved in acetone. The quantity of soil treated with the herbicide and antidote was thoroughly mixed to incorporate the herbicide and antidote in the soil uniformly. The seed bed in the third container of soil was covered with the soil treated with the herbicide and antidote and the container was leveled. For each test series, the seed beds of the first and second containers were likewise covered by soil layers. the cover layer of the first container was not treated with herbicide or antidote.
(§3) The containers were then placed on a bench in a greenhouse and sub-irrigated as required for the duration of the test. […] Plant response is measured in terms of percent injury. Antidote efficacy is indicated as the difference in plant injury by the herbicide(s) without the antidote and with the antidote.
(§4) This procedure is the same as Procedure I, but modified in the manner that after incorporation of the chemicals (herbicide and antidote) the containers with the covered seedbed were treated with an initial overhead irrigation equivalent to 0.6 cm rainfall, then subsequently sub-irrigated as required on greenhouse benches.
(§5) In the series of greenhouse tests described below, for routine screening purposes the herbicide/antidote compositions were tested in crop/weed combinations involving corn as the crop and either or both of the weeds barnyardgrass (Echinochloa crusgalli), a monocotyledonous weed, and velvetleaf (Abutilon theophrasti), a dicotyledonous weed. In the tables below, these weeds are indicated by the symbols "BYG" and "VL", respectively.
(§6) In this example, tests were conducted as in the preceding Examples 18-20, except here the co-herbicidal component was SUTAN® PLUS, a commercial product comprising as the active herbicidal ingredient the compound butylate (Herbicide No. 10) and an antidote […] (Antidote No. 1). Again, the antidotal compounds herein were Nos. 1, 2, 7, 13 and 15. Procedure II was used.
(§7) The experiments in this example were designed as a retest of those described in Example 21 in view of the uncharacteristically poor corn safety and weed control, believed to have resulted from unseasonably high temperatures in the greenhouse. Accordingly, temperatures were reduced for these tests.

[4] = tested on: velvetleaf (Abutilon theophrasti); assay: as above; settings: Table 22
Experimental: as §2, §3, §4, §5, §6, §7

[5] = Herb. No. 1 0.07 Kg/ha + Co-Herb. No. 4 1.12 Kg/ha + antidote 2.24 Kg/ha
[6] = Herb. No. 1 0.07 Kg/ha + Co-Herb. No. 6 0.14 Kg/ha + antidote 2.24 Kg/ha
[7] = Herb. No. 1 0.07 Kg/ha + Co-Herb. No. 7 0.28 Kg/ha + antidote 2.24 Kg/ha
[8] = Herb. No. 1 0.07 Kg/ha + Co-Herb. No. 12 0.28 Kg/ha + antidote 2.24 Kg/ha
[9] = Herb. No. 1 0.14 Kg/ha + Co-Herb. No. 4 1.12 Kg/ha + antidote 2.24 Kg/ha
[10] = Herb. No. 1 0.14 Kg/ha + Co-Herb. No. 6 0.14 Kg/ha + antidote 2.24 Kg/ha
[11] = Herb. No. 1 0.14 Kg/ha + Co-Herb. No. 7 0.28 Kg/ha + antidote 2.24 Kg/ha
[12] = Herb. No. 1 0.14 Kg/ha + Co-Herb. No. 12 0.28 Kg/ha + antidote 2.24 Kg/ha
[13] = Herb. No. 1 0.28 Kg/ha + Co-Herb. No. 4 1.12 Kg/ha + antidote 2.24 Kg/ha
[14] = Herb. No. 1 0.28 Kg/ha + Co-Herb. No. 6 0.14 Kg/ha + antidote 2.24 Kg/ha
[15] = Herb. No. 1 0.28 Kg/ha + Co-Herb. No. 7 0.28 Kg/ha + antidote 2.24 Kg/ha
[16] = Herb. No. 1 0.28 Kg/ha + Co-Herb. No. 12 0.28 Kg/ha + antidote 2.24 Kg/ha
[17] = Herb. No. 1 0.56 Kg/ha + Co-Herb. No. 4 1.12 Kg/ha + antidote 2.24 Kg/ha
[18] = Herb. No. 1 0.56 Kg/ha + Co-Herb. No. 6 0.14 Kg/ha + antidote 2.24 Kg/ha
[19] = Herb. No. 1 0.56 Kg/ha + Co-Herb. No. 7 0.28 Kg/ha + antidote 2.24 Kg/ha
[20] = Herb. No. 1 0.56 Kg/ha + Co-Herb. No. 12 0.28 Kg/ha + antidote 2.24 Kg/ha
[21] = Herbicide No.1 0.56 kg/ha + ERADICANE EXTRA 8.96 kg/ha, antidote 2.24 kg/ha
[22] = Herbicide No.1 0.56 kg/ha + ERADICANE EXTRA 8.96 kg/ha, antidote 8.96 kg/ha
[23] = Herbicide No.1 1.12 kg/ha + ERADICANE EXTRA 8.96 kg/ha, antidote 2.24 kg/ha
[24] = Herbicide No.1 1.12 kg/ha + ERADICANE EXTRA 8.96 kg/ha, antidote 8.96 kg/ha
[25] = Herbicide No.1 0.56 Kg/ha + SUTAN + 8.96 Kg/ha + antidote 2.24 Kg/ha
[26] = Herbicide No.1 0.56 Kg/ha + SUTAN + 8.96 Kg/ha + antidote 8.96 Kg/ha
[27] = Herbicide No.1 1.12 Kg/ha + SUTAN + 8.96 Kg/ha + antidote 2.24 Kg/ha
[28] = Herbicide No.1 1.12 Kg/ha + SUTAN + 8.96 Kg/ha + antidote 8.96 Kg/ha

Compound: CC1(C)OC(c2ccco2)CN1C(=O)C(Cl)Cl (centres unmarked) [compound 15]
- % Inhibition GFT [1, 5]: 40%
- % Inhibition GFT [1, 6]: 100%
- % Inhibition GFT [1, 7]: 100%
- % Inhibition GFT [1, 8]: 99%
- % Inhibition GFT [1, 9]: 65%
- % Inhibition GFT [1, 10]: 100%
- % Inhibition GFT [1, 11]: 100%
- % Inhibition GFT [1, 12]: 99%
- % Inhibition GFT [1, 13]: 60%
- % Inhibition GFT [1, 14]: 100%
- % Inhibition GFT [1, 15]: 100%
- % Inhibition GFT [1, 16]: 100%
- % Inhibition GFT [1, 17]: 60%
- % Inhibition GFT [1, 18]: 99%
- % Inhibition GFT [1, 19]: 100%
- % Inhibition GFT [1, 20]: 99%
- % Inhibition VL [2, 5]: 90%
- % Inhibition VL [2, 6]: 95%
- % Inhibition VL [2, 7]: 85%
- % Inhibition VL [2, 8]: 90%
- % Inhibition VL [2, 9]: 95%
- % Inhibition VL [2, 10]: 85%
- % Inhibition VL [2, 11]: 95%
- % Inhibition VL [2, 12]: 95%
- % Inhibition VL [2, 13]: 95%
- % Inhibition VL [2, 14]: 98%
- % Inhibition VL [2, 15]: 95%
- % Inhibition VL [2, 16]: 98%
- % Inhibition VL [2, 17]: 95%
- % Inhibition VL [2, 18]: 99%
- % Inhibition VL [2, 19]: 98%
- % Inhibition VL [2, 20]: 99%
- % Injury Corn (corn; [21]): 20%
- % Injury Corn (corn; [22]): 30%
- % Injury Corn (corn; [23]): 25%
- % Injury Corn (corn; [24]): 25%
- % Injury BYG [3, 25]: 85%
- % Injury BYG [3, 26]: 90%
- % Injury BYG [3, 27]: 85%
- % Injury BYG [3, 28]: 90%
- % Injury VL [4, 25]: 70%
- % Injury VL [4, 26]: 98%
- % Injury VL [4, 27]: 80%
- % Injury VL [4, 28]: 80%

Compound: C=CCN(CC=C)C(=O)C(Cl)Cl [compound 1]
- % Injury Corn (corn; [21]): 35%
- % Injury Corn (corn; [22]): 15%
- % Injury Corn (corn; [23]): 35%
- % Injury Corn (corn; [24]): 25%
- % Injury BYG [3, 25]: 93%
- % Injury BYG [3, 26]: 90%
- % Injury BYG [3, 27]: 85%
- % Injury BYG [3, 28]: 90%
- % Injury VL [4, 25]: 80%
- % Injury VL [4, 26]: 80%
- % Injury VL [4, 27]: 80%
- % Injury VL [4, 28]: 80%
